# Experimental data reported in US20120035201A1, “SPIROHETEROCYCLIC PYRROLIDINE DIONE DERIVATIVES USED AS PESTICIDES” (SYNGENTA CROP PROTECTION LLC, priority 2009, published 2012).
# System: Myzus persicae (green peach aphid)
# Assay: Example B2: activity against Myzus persicae, pea seedling roots in test solution (systemic/feeding, curative)
# Conditions: 144 h, read-out: activity (mortality)
row,SMILES,mortality at 400 ppm
1,CON1CCC2(CC1)NC(=O)C(Cl)(c1cc(C)c(C)cc1Cl)C2=O (stereo not drawn) [A12],> 80%
2,"CON1CCC2(CC1)NC(=O)C(Cl)(c1cc(C)ccc1C)C2=O (stereo not drawn) [A1, 3-chloro-3-(2,5-dimethyl-phenyl)-8-methoxy-1,8-diaza-spiro[4.5]decane-2,4-dione]",> 80%
3,CON1CCC2(CC1)NC(=O)C(Cl)(c1cc(Br)c(C)cc1C)C2=O (stereo not drawn) [A15],> 80%
4,CON1CCC2(CC1)NC(=O)C(Cl)(c1c(C)cccc1C)C2=O (stereo not drawn) [A8],> 80%

# System: Myzus persicae (green peach aphid)
# Assay: Example B1: activity against Myzus persicae, sprayed sunflower leaf discs (feeding/residual contact, preventive)
# Conditions: foliar, 144 h, read-out: activity (mortality)
row,SMILES,mortality at 400 ppm
1,CON1CCC2(CC1)NC(=O)C(Cl)(c1cc(C)c(C)cc1Cl)C2=O (stereo not drawn) [A12],> 80%
2,"CON1CCC2(CC1)NC(=O)C(Cl)(c1cc(C)ccc1C)C2=O (stereo not drawn) [A1, 3-chloro-3-(2,5-dimethyl-phenyl)-8-methoxy-1,8-diaza-spiro[4.5]decane-2,4-dione]",> 80%
3,CON1CCC2(CC1)NC(=O)C(Cl)(c1cc(Br)c(C)cc1C)C2=O (stereo not drawn) [A15],> 80%
4,CON1CCC2(CC1)NC(=O)C(Cl)(c1c(C)cccc1C)C2=O (stereo not drawn) [A8],> 80%

# System: Aphis Craccivora (cowpea aphid)
# Assay: Example B15: activity against Aphis craccivora, pea seedling roots in test solution (systemic/feeding)
# Format: in vivo
# Conditions: 144 h, roots of infested pea seedlings in test solution, 6 days
# Description: Activity Against Aphis Craccivora (Cowpea Aphid)
# (§1) (Mixed Population, Systemic/Feeding)
# 6 days later, samples are checked for mortality. In this test, compounds listed in Table A above show good activity. For example compounds A8, A9, A13 and A14 show an activity of over 80% at a concentration of 25 ppm.
row,SMILES,mortality at 25 ppm
1,CON1CCC2(CC1)NC(=O)C(Cl)(c1c(C)cccc1C)C2=O (stereo not drawn) [A8],> 80%

# System: Aphis Craccivora (cowpea aphid)
# Assay: Example B9: translaminar activity against Aphis craccivora on French bean leaves
# Format: in vivo
# Conditions: 120 h, upper leaf side painted, aphids on lower side, 5 days
# Protocol: Translaminar Activity Against Aphis Craccivora (Cowpea Aphid)
# French bean leaves (Phaseolus vulgaris) are infested with about 20 mixed age individuals on the lower leaf side using clip cages. 1 day after the infestation, the upper side of the leaves is treated with the test solution by painting. 5 days later, samples are checked for mortality.
row,SMILES,mortality at 400 ppm
1,CON1CCC2(CC1)NC(=O)C(Cl)(c1c(C)cccc1C)C2=O (stereo not drawn) [A8],> 80%

# System: cowpea aphid (Aphis craccivora)
# Assay: Example B13: insecticide seed treatment of sugarbeet seeds, infestation with cowpea aphid
# Format: in vivo
# Conditions: 0.1 mg a.i./seed, infested after 14 days, counted 7 days later
# Protocol: Insecticide Seed Treatment
# Sugarbeet seeds are treated with test compounds at various rates (mg a.i./seed). The seeds are sown into pots filled with soil. After placing the seeds on the soil surface they are further covered with soil. Before and during the bioassays, the plants are grown under optimal greenhouse conditions. After 14 days, the plants are infested with cowpea aphid (Aphis craccivora) by placing one infested pea seedling containing approximately 150 aphids of a population of mixed developmental stages onto each plant. Seven days after infestation, the number of aphids is counted per plant. Each treatment group is replicated 10 times. Each replicate contains 1 plant.
row,SMILES,efficacy in the reduction of aphids compared to untreated control plants
1,"CON1CCC2(CC1)NC(=O)C(Cl)(c1cc(C)ccc1C)C2=O (stereo not drawn) [A1, 3-chloro-3-(2,5-dimethyl-phenyl)-8-methoxy-1,8-diaza-spiro[4.5]decane-2,4-dione]",over 80%

# System: Tetranychus urticae (two-spotted spider mite)
# Assay: Example B3: activity against Tetranychus urticae, sprayed bean leaf discs (feeding/residual contact, preventive)
# Format: in vivo
# Conditions: foliar, 192 h, mixed population, 8 days, read-out: activity (egg, larval and adult mortality)
# Description: Activity Against Tetranychus urticae (Two-Spotted Spider Mite)
# (Mixed Population, Feeding/Residual Contact Activity, Preventive)
# Bean leaf discs on agar in 24-well microtiter plates are sprayed with test solutions. […] 8 days later, discs are checked for egg mortality, larval mortality, and adult mortality. In this test, compounds listed in the Table A above show good activity. In particular compounds A1, A4, A5, A7, A8, A9, A10, A11, A12, A13 and A14 show an activity of over 80% at a concentration of 400 ppm.
row,SMILES,mortality at 400 ppm
1,CON1CCC2(CC1)NC(=O)C(Cl)(c1cc(C)c(C)cc1Cl)C2=O (stereo not drawn) [A12],> 80%
2,"CON1CCC2(CC1)NC(=O)C(Cl)(c1cc(C)ccc1C)C2=O (stereo not drawn) [A1, 3-chloro-3-(2,5-dimethyl-phenyl)-8-methoxy-1,8-diaza-spiro[4.5]decane-2,4-dione]",> 80%
3,CON1CCC2(CC1)NC(=O)C(Cl)(c1c(C)cccc1C)C2=O (stereo not drawn) [A8],> 80%

# System: Bemisia tabaci (tobacco white fly)
# Assay: Example B7: activity against Bemisia tabaci, larvicide on bean plants (contact/feeding)
# Format: in vivo
# Conditions: 200 ppm; bean plants with N-2 nymphs sprayed, three weeks
# Protocol: Activity Against Bemisia tabaci (Tobacco White Fly)
# (Larvicide, Contact/Feeding)
# Bean plants are infested with 20-30 adults that were removed after a 4 day egg-laying period. After another 7 days, bean plants with hatched nymphs (N−2) are treated (2 replicates) with the test solutions in a spray chamber. Three weeks later, samples are checked for number of emerged adults. Efficacy was calculeted by comparing number of emerged adults in treated and non treated samples.
row,SMILES,"activity (efficacy, number of emerged adults vs non treated)"
1,"CON1CCC2(CC1)NC(=O)C(Cl)(c1cc(C)ccc1C)C2=O (stereo not drawn) [A1, 3-chloro-3-(2,5-dimethyl-phenyl)-8-methoxy-1,8-diaza-spiro[4.5]decane-2,4-dione]",over 80%

# System: Nilaparvata lugens (brown rice planthopper)
# Assay: Example B8: activity against Nilaparvata lugens, larvicide on rice seedlings (feeding/contact)
# Format: in vivo
# Conditions: sprayed rice seedlings, N3 nymphs, 6-12 days, read-out: activity (mortality, growth regulation, effects on F1 generation)
# Protocol: Activity Against Nilaparvata lugens (Brown Rice Planthopper)
# (Larvicide, Feeding/Contact)
# Rice seedlings are treated with the diluted test solutions in a spray chamber. After drying, they are infested with 20 N3 nymphs (2 replicates). 6-12 days after the treatment samples are checked for mortality, growth regulation, and effects on the F1 generation. In this test, compounds listed in the Table A above show good activity. For example compounds A1, A2, A4, A7, A8, A9, A13 and A14 show an activity of over 80% at a concentration of 400 ppm.
row,SMILES,mortality at 400 ppm
1,"CON1CCC2(CC1)NC(=O)C(Cl)(c1cc(C)ccc1C)C2=O (stereo not drawn) [A1, 3-chloro-3-(2,5-dimethyl-phenyl)-8-methoxy-1,8-diaza-spiro[4.5]decane-2,4-dione]",> 80%
2,CON1CCC2(CC1)NC(=O)C(Cl)(c1c(C)cccc1C)C2=O (stereo not drawn) [A8],> 80%

# System: Thrips tabaci (onion thrips)
# Assay: Example B4: activity against Thrips tabaci, sprayed sunflower leaf discs (feeding/residual contact, preventive)
# Conditions: foliar, 144 h, read-out: activity (mortality)
row,SMILES,mortality at 400 ppm
1,CON1CCC2(CC1)NC(=O)C(Cl)(c1cc(C)c(C)cc1Cl)C2=O (stereo not drawn) [A12],> 80%
2,"CON1CCC2(CC1)NC(=O)C(Cl)(c1cc(C)ccc1C)C2=O (stereo not drawn) [A1, 3-chloro-3-(2,5-dimethyl-phenyl)-8-methoxy-1,8-diaza-spiro[4.5]decane-2,4-dione]",> 80%
3,CON1CCC2(CC1)NC(=O)C(Cl)(c1cc(Br)c(C)cc1C)C2=O (stereo not drawn) [A15],> 80%
4,CON1CCC2(CC1)NC(=O)C(Cl)(c1c(C)cccc1C)C2=O (stereo not drawn) [A8],> 80%

# System: Myzus persicae (green peach aphid)
# Assay: Example B12: activity against Myzus persicae on sprayed pepper plants (feeding/residual contact)
# Format: in vivo
# Conditions: 144 h, 6 days
row,SMILES,mortality at 200 ppm
1,CON1CCC2(CC1)NC(=O)C(Cl)(c1c(C)cccc1C)C2=O (stereo not drawn) [A8],≥ 80%

# System: pepper plants
# Assay: Example B12: plant damage evaluation (phytotoxicity) on sprayed pepper plants
# Conditions: in vivo, 6 days, 200 ppm
row,SMILES,"damage to pepper plants (phytotoxicity, 0-100% rating scale)"
1,CON1CCC2(CC1)NC(=O)C(Cl)(c1c(C)cccc1C)C2=O (stereo not drawn) [A8],≤ 10%

# System: Aonidiella Aurantii (red scale)
# Assay: Example B10: activity against Aonidiella aurantii, dipped potato tubers
# Format: in vivo
# Conditions: 200 ppm, 6-8 weeks
# Description: Activity Against Aonidiella Aurantii (Red Scale)
# Treatment of potato tubers by dipping the in the test solution. One day later, tubers are infested with about 50 crawlers. 6-8 weeks after application samples are checked for the number of crawlers of the next generation (compared to the non treated samples). In this test, compounds listed in the Table A above show good activity.
row,SMILES,activity (number of crawlers of the next generation vs non treated)
1,"CON1CCC2(CC1)NC(=O)C(Cl)(c1cc(C)ccc1C)C2=O (stereo not drawn) [A1, 3-chloro-3-(2,5-dimethyl-phenyl)-8-methoxy-1,8-diaza-spiro[4.5]decane-2,4-dione]",over 80%

# System: Aphis gossypii (cotton aphid)
# Assay: Example B11: activity against Aphis gossypii, pea seedling roots in test solution (systemic/feeding)
# Format: in vivo
# Conditions: 144 h, roots of infested pea seedlings in test solution, 6 days
# Description: Activity Against Aphis gossypii (Cotton Aphid)
# as §1
# 6 days later, samples are checked for mortality. In this test, compounds listed in Table A above show good activity.
row,SMILES,mortality at 25 ppm
1,"CON1CCC2(CC1)NC(=O)C(Cl)(c1cc(C)ccc1C)C2=O (stereo not drawn) [A1, 3-chloro-3-(2,5-dimethyl-phenyl)-8-methoxy-1,8-diaza-spiro[4.5]decane-2,4-dione]",> 80%

# System: Diabrotica balteata (corn root worm)
# Assay: Example B5: activity against Diabrotica balteata, larvicide on artificial diet in microtiter plate
# Format: in vivo
# Conditions: 120 h, L2 larvae, 5 days, read-out: activity (larval mortality, antifeedant, growth regulation)
# Protocol: Activity Against Diabrotica balteata (Corn Root Worm)
# (Larvicide, Feeding/Residual Contact Activity, Preventive)
# 24-well microtiter plate (MTP) with artificial diet is treated with test solutions by pipetting. After drying, the MTP's are infested with larvae (L2)(6-10 per well). After an incubation period of 5 days, samples are checked for larval mortality, antifeedant and growth regulation.
row,SMILES,mortality at 400 ppm
1,CON1CCC2(CC1)NC(=O)C(Cl)(c1cc(C)c(C)cc1Cl)C2=O (stereo not drawn) [A12],> 80%
2,"CON1CCC2(CC1)NC(=O)C(Cl)(c1cc(C)ccc1C)C2=O (stereo not drawn) [A1, 3-chloro-3-(2,5-dimethyl-phenyl)-8-methoxy-1,8-diaza-spiro[4.5]decane-2,4-dione]",> 80%
